{"source": "ChEMBL document CHEMBL1145256", "about": "“Synthesis of novel 10-deoxoartemisinins” (Bioorg Med Chem Lett, 2005)", "data": [{"system": "Plasmodium falciparum", "test": "microbe, parasite or virus in culture", "units": {"IC50": "nM"}, "description": "In vitro antimalarial activity against Plasmodium falciparum (Ghana)", "values": [{"smiles": "C[C@H]1[C@@H](CCOC(=O)C2CCCCC2C(=O)O)O[C@@H]2O[C@]3(C)CC[C@H]4[C@H](C)CC[C@@H]1[C@@]24OO3", "note": "(some centres not stated)", "IC50": 0.5}, {"smiles": "C[C@H]1[C@@H](CCOC(=O)C2CC=CCC2C(=O)O)O[C@@H]2O[C@]3(C)CC[C@H]4[C@H](C)CC[C@@H]1[C@@]24OO3", "note": "(some centres not stated)", "IC50": 0.5}, {"smiles": "C[C@H]1[C@@H](CCNCc2ccccn2)O[C@@H]2O[C@]3(C)CC[C@H]4[C@H](C)CC[C@@H]1[C@@]24OO3", "IC50": 2}, {"smiles": "C[C@H]1[C@@H](CCNCCc2ccccc2)O[C@@H]2O[C@]3(C)CC[C@H]4[C@H](C)CC[C@@H]1[C@@]24OO3", "IC50": 11}, {"smiles": "C[C@H]1[C@@H](CCOC(=O)CCC(=O)O)O[C@@H]2O[C@]3(C)CC[C@H]4[C@H](C)CC[C@@H]1[C@@]24OO3", "IC50": 0.5}, {"smiles": "CCCNCC[C@H]1O[C@@H]2O[C@]3(C)CC[C@H]4[C@H](C)CC[C@@H]([C@H]1C)[C@@]24OO3", "IC50": 1}, {"smiles": "C[C@H]1[C@@H](CCNCc2cccnc2)O[C@@H]2O[C@]3(C)CC[C@H]4[C@H](C)CC[C@@H]1[C@@]24OO3", "IC50": 1}, {"smiles": "C[C@H]1[C@@H](CCO)O[C@@H]2OC3(C)CC[C@H]4[C@H](C)CC[C@@H]1[C@@]24OO3", "note": "(single isomer, unassigned)", "IC50": 1}, {"smiles": "C[C@@H]1CC[C@H]2[C@@H](C)C(=O)O[C@@H]3O[C@@]4(C)CC[C@@H]1[C@]32OO4", "note": "[ARTEMISININ]", "IC50": 9}]}, {"system": "Plasmodium falciparum", "test": "microbe, parasite or virus in culture", "remark": "another data set of the same source", "units": {"IC50": "nM"}, "description": "In vitro antimalarial activity against Plasmodium falciparum resistant W-2", "values": [{"smiles": "C[C@H]1[C@@H](CCOC(=O)C2CCCCC2C(=O)O)O[C@@H]2O[C@]3(C)CC[C@H]4[C@H](C)CC[C@@H]1[C@@]24OO3", "note": "(some centres not stated)", "IC50": 0.4}, {"smiles": "C[C@H]1[C@@H](CCOC(=O)C2CC=CCC2C(=O)O)O[C@@H]2O[C@]3(C)CC[C@H]4[C@H](C)CC[C@@H]1[C@@]24OO3", "note": "(some centres not stated)", "IC50": 0.4}, {"smiles": "C[C@H]1[C@@H](CCNCc2ccccn2)O[C@@H]2O[C@]3(C)CC[C@H]4[C@H](C)CC[C@@H]1[C@@]24OO3", "IC50": 2}, {"smiles": "C[C@H]1[C@@H](CCNCCc2ccccc2)O[C@@H]2O[C@]3(C)CC[C@H]4[C@H](C)CC[C@@H]1[C@@]24OO3", "IC50": 20}, {"smiles": "C[C@H]1[C@@H](CCOC(=O)CCC(=O)O)O[C@@H]2O[C@]3(C)CC[C@H]4[C@H](C)CC[C@@H]1[C@@]24OO3", "IC50": 0.4}, {"smiles": "CCCNCC[C@H]1O[C@@H]2O[C@]3(C)CC[C@H]4[C@H](C)CC[C@@H]([C@H]1C)[C@@]24OO3", "IC50": 3}, {"smiles": "C[C@H]1[C@@H](CCNCc2cccnc2)O[C@@H]2O[C@]3(C)CC[C@H]4[C@H](C)CC[C@@H]1[C@@]24OO3", "IC50": 1}, {"smiles": "C[C@H]1[C@@H](CCO)O[C@@H]2OC3(C)CC[C@H]4[C@H](C)CC[C@@H]1[C@@]24OO3", "note": "(single isomer, unassigned)", "IC50": 1}]}]}
